This note sets out measurements from US20200289473A1, “METHODS OF TREATING NEURODEGENERATION” (The J David Gladstone Institutes a testamentary trust …, priority 2017, published 2020).

The structures appear in SMILES notation. pIC50: −log10 of the molar value. “Also recorded” adds a separate entry of the source.

For series [1], the system named is Cx3cr1+ microglia and Ccr2+ monocytes. Nature of the series: microglial accumulation and monocyte infiltration in Ccr2RFP/+Cx3cr1GFP/+ mice with MOG35-55 EAE. The class given is in vivo. Particulars: prophylactic injection. An excerpt:
CNS-resident innate immune cell microglia and CNS-infiltrating inflammatory monocytes are essential for the inflammatory progression of EAE. Yamasaki, R. et al. J Exp Med 211, 1533-1549 (2014); Ajami, B. et al, Nature neuroscience 14, 1142-1149 (2011). To determine whether blocking the γ-glutamyl transpeptidase activity with acivicin inhibits microglial activation and infiltration of monocytes/macrophages in vivo in the EAE models, Ccr2^RFP/+Cx3cr1^GFP/+ mice in which resident microglia are GFP-positive and inflammatory monocytes are RFP-positive were used. Ryu, J. K. et al. Nat Commun 6, 8164 (2015). EAE was induced with MOG35-55, and mice were prophylactically injected with acivicin.

The subject of series [2] is fibrin-activated microglia cells. Nature of the series: proliferation of fibrin-activated microglia cells. The class given is cell-based. Particulars: increase in cell count upon activation; dose-dependent (FIG. 3). The text has this:
(§1) Throughout assay development, we consistently observed multiple-fold proliferation (increase in cell count) of microglia upon activation. Proliferation of fibrin-activated microglia cells was inhibited by treatment with acivicin. […] We also examined the effect of acivicin on microglia activation by other immunostimulatory agents.

Series [3] deals with LPS-induced microglia activation. Nature of the series: LPS-induced microglia activation assay. The format is cell-based. Particulars: LPS stimulus; comparable to fibrin (FIG. 4).
From the text: (§2) To identify inhibitors of microglia activation, an assay as described in U.S. Ser. No. 15/109,163, was used to screen a library of 1907 clinical drugs and bioactive compounds. The criteria for hits were ≥50% inhibition of activation and ≤3% cell death to exclude toxic compounds. This represents a three standard deviation difference from the mean value of negative control activated cells. 128 compounds were selected from the screen that satisfied these criteria for dose response curves. Acivicin, a γ-glutamyl transpeptidase inhibitor, was identified among the compounds and was selected for additional characterization as it was an unexpected target for microglial activation and had not been previously linked with neurological diseases.
as §1

Series [4] has as its system pro-inflammatory gene expression. Nature of the series: real-time PCR of pro-inflammatory genes in spinal cords at the peak of EAE. The class given is in vivo, mice. The conditions noted are these: spinal cord, peak of MOG35-55 EAE; vs saline. The method, then:
To gain insight into the anti-inflammatory mechanism by which acivicin regulates the progression of inflammation after EAE, real-time PCR analysis was used. Real-time PCR analysis of expression of pro-inflammatory genes in the spinal cords of MOG35-55 treated mice was performed at the peak of EAE in the saline-treated and acivicin-treated mice (n=7 saline and n=7 acivicin).

The subject of a further series is microglia. Nature of the series: cell toxicity in the microglia activation assay. The format is cell-based. The conditions noted are these: up to highest assay concentration of 20 μM.
From the text: as §2, §1

The test system of series [5] is fibrin-induced microglia activation. Nature of the series: fibrin-induced microglia activation assay. The format is cell-based. Particulars: dose-dependent, fibrin stimulus, read-out: IC50, inhibition of fibrin-induced microglia activation.
From the text: as §2, §1

Series [6] deals with myelin damage and neuronal injury in EAE. Nature of the series: MBP and SMI-32 immunohistochemistry in EAE. The class given is in vivo. The conditions noted are these: after EAE induction; vs saline-treated mice. An excerpt: To investigate whether acivicin can protect from myelin damage and neurodegeneration in EAE, MBP and SMI-32 immunohistochemistry was used to assess myelin damage and neuronal injury.

A further series relates to PLP139-151 induced EAE. Nature of the series: relapsing-remitting EAE model (PLP139-151), therapeutic treatment, clinical score. The class given is in vivo. The conditions noted are these: PLP139-151 mice; daily i.p. starting at peak EAE; vs saline. An excerpt:
(§3) To further study the ability of acivicin to inhibit microglial activation, acivicin was next studies for its ability to suppress disease progression and ameliorate the disease symptoms in the EAE animal models of multiple sclerosis. Two models of EAE were used: (1) mice immunized with MOG35-55 to induce chronic disease and (2) mice immunized with PLP139-151 to induce relapsing-remitting EAE.
Next, to assess the ability to therapeutic efficacy of acivicin to treat disease symptoms and/or progression in relapsing-remitting (PLP139-151) EAE model, mice were administered either acivicin or saline injections daily by intraperitoneal (i.p.) injection starting at the peak EAE phase of the EAE PLP139-151. (n=6 saline, and n=7 acivicin). Acivicin decreased the clinical severity of EAE during remission phases (FIG. 7).

In a further series the test system is MOG35-55 induced EAE. Nature of the series: chronic EAE model (MOG35-55), prophylactic treatment, clinical score. The format is in vivo. The conditions noted are these: MOG35-55 mice; daily i.p. starting 0 day after immunization; vs saline.
From the text: as §3
First, to examine the ability of acivicin to prevent disease symptoms and/or progression to multiple sclerosis in a chronic EAE model, acivicin or saline were administered prophylactically to mice immunized with MOG35-55 to induce chronic disease. The mice were immunized with MOG35-55 to induce chronic disease. Acivicin or saline was administered daily by intraperitoneal (i.p.) injection, starting 0 day after immunization (n=15 saline, n=14 acivicin).

With `N[C@H](C(=O)O)[C@@H]1CC(Cl)=NO1` [acivicin], in series [1], the “accumulation of Cx3cr1+ microglia (% area GFP in spinal cord)” value was “significantly decreased” and the “infiltration of Ccr2+ monocytes (% area RFP)” value is given as “significantly decreased”. Besides, the “proliferation of fibrin-activated microglia cells” value in [2] is on record as “inhibited”. Besides, the “inhibition of microglia activation by LPS (potency)” value in series [3] is “comparable low μM potency”. For the same molecule, in series [4], the “EAE-induced transcription of Ccl5” value is recorded as “inhibits”, the “EAE-induced transcription of Cxcl10” value was “inhibits”, the “EAE-induced transcription of IL-1b” value is listed as “inhibits” and the “EAE-induced transcription of IL-12p40” value was “inhibits”. In addition, the “EAE-induced transcription of iNOS” value in series [4] is given as “inhibits”. In addition, in the series on microglia, the “toxic cell death / cell toxicity” value is given as “no apparent cell toxicity; also recorded: not evident”. Moreover, the pIC50 (usually the IC50 on a negative log10 scale, so that one unit is a factor of ten) in [5] is 5.70. Besides, in series [6], the “axonal injury (SMI-32 immunohistochemistry)” value is “dramatic reduction” and the “myelin damage (MBP immunohistochemistry)” value is “dramatic reduction”. Also, the “clinical severity of EAE during remission phases” value with PLP139-151 induced EAE is “decreased”. The “acute phase of EAE (clinical score)” value in the series with MOG35-55 induced EAE is given as “completely inhibited”.
